Source: patent US20050064412A1, “Method of evaluating degree of canceration of mammal-origin specimen” (priority 2001, published 2005)

Columns and labels:
Type in all cases: cell-based, human
[1] = test system: 3OST2 gene; assay: Methylation-specific PCR of 3OST2 gene after culture with methylation inhibitor (MCF-7); conditions: breast cancer cell line MCF-7 cultured in the presence of 6 μM 5Aza-dC, FIG. 2
Description: (§1) Two kinds of human-derived breast cancer cell lines (MCF-7, MDA-MB-468) and human-derived normal mammary gland epithelial cell (HMEC) were seeded at a density of 3 to 6×10^5 cells/10 cm plate, and cultured using RPMI or DMEM or an exclusively used medium. On the first day after seeding, 5-aza-2′-deoxytidine (manufactured by sigma) (hereinafter, referred to as 5Aza-dC) which is a methylation inhibitor was added to a medium to give the concentration of 0.5 to 6 μM. Twenty four hours after addition of 5Aza-Dc, the medium was exchanged with the aforementioned medium to which no 5Aza-dC was added, and culturing was continued. Then, on the third day after seeding, 5Aza-dC was added to the medium similarly. On the fourth day after seeding, cells were recovered, and a genomic DNA was extracted and recovered from the recovered cells according to the same manner as that of Example 1. Further, according to the same manner as that of Example 2, a RNA was extracted and recovered.
(§2) The extracted and recovered genomic DNA was treated with sodium bisulfite according to the same manner as that of Example 1. The resulting DNA was used as a template and PCR was performed using unmethylation-specific primers U2 and U3, or methylation-specific primers M3 and M4 shown below. […]

[2] = test system: 3OST2 gene; assay: Methylation-specific PCR of 3OST2 gene after culture with methylation inhibitor (MDA-MB-468); conditions: breast cancer cell line MDA-MB-468 cultured in the presence of 0.5 μM 5Aza-dC, FIG. 2
Description: as §1, §2

[3] = test system: 3OST2 gene; assay: RT-PCR of 3OST2 gene mRNA after culture with methylation inhibitor (MDA-MB-468); conditions: FIG. 3
Description: The thus obtained RNA was treated with DNaseI (Life Technologies), and this was used as a template and Superscript II (Life Technologies) was used to synthesize a cDNA according to a protocol attached to the enzyme. By performing PCR using the synthesized cDNA as a template and using 3OST2 S and 3OST2 A shown below as a primer pair, a DNA derived from a mRNA of 3OST2 gene was amplified. Thereupon, as a control by performing PCR using the aforementioned cDNA as a template and using GAPDH S and GAPDH A solution below as a primer pair, a DNA derived from a mRNA of a GAPDH gene was amplified.
A reaction solution PCR was used which was obtained by mixing 20 ng of a cDNA as a template, each 0.25 μl of two kinds of 25 pmol/μl aforementioned primer solution, 0.5 μl of 10 mM dNTP, 2.5 μl of 10× buffer (100 mM Tris-HCl pH 8.3, 500 mM KCl, 20 mM MgCl2) and 0.15 μl of a 5 U/μl thermostable DNA polymerase, and adding sterilized ultrapure water thereto to an amount of solution of 25 μl. When a DNA derived from mRNA of 3OST2 gene was amplified, PCR was performed at the conditions under which the reaction solution was retained at 94° C. for 10 minutes, 28 cycles of temperature maintenance were performed, each cycle was 30 seconds at 94° C., 30 seconds at 45° C. and 60 seconds at 72° C., and a temperature was maintained at 72° C. for 10 minutes. […]

Nc1ncn([C@H]2C[C@H](O)[C@@H](CO)O2)c(=O)n1 [5Aza-dC, 5-aza-2′-deoxytidine]
methylation status of cytosines 1260, 1271, 1281, 1410, 1418, 1423 and 1425 of SEQ ID NO: 1 (3OST2 gene) [1]: not methylated in genomic DNAs of approximately half of cells
methylation status of cytosines 1260, 1271, 1281, 1410, 1418, 1423 and 1425 of SEQ ID NO: 1 (3OST2 gene) [2]: not methylated in almost genomic DNAs
DNA (161 bp) derived from a mRNA of 3OST2 gene (expression) ([3]; MAD-MB-468 cultured in the presence of 0.5 μM 5Aza-dC): detected
DNA (161 bp) derived from a mRNA of 3OST2 gene (expression) ([3]; MAD-MB-468 cultured in the presence of 1 μM 5Aza-dC): detected
